According to patent publication US10744181B2, “Glycopeptide derivatives for use in the treatment and/or prevention and/or attenuation of fibrosis diseases” (TFCHEM, priority 2017, dated 2020):
Marks after values point to notes of the source that are not given here.

How the values were obtained:
Format in all cases: cell-based, human
Collagen III = Collagen III synthesis (ELISA) in normal fibroblasts; details: normal fibroblasts (NF), compound at 9.4 mM, 48 hours; ng collagen III per mg proteins
Experimental: (§1) Primary cultures of keloid fibroblasts (KF) and normal fibroblasts (NF) were obtained from operative wastes (keloid and abdominoplasty). After thawing, cells were grown in Dulbecco's modified Eagle's medium (DMEM) supplemented with 10% of fetal calf serum, 40 mg/l of gentamicin and 2 mg/l of fungizone (DMEMc), in an incubator at 37° C., 5% CO2. Culture medium was changed twice a week and cells were subcultured by trypsinization when confluence was reached. Cells were used under 10 passages.
(§2) Compound 1 was directly diluted in culture medium at 5 mg/ml.
(§3) Fibroblasts were seeded in 6 wells culture plate at the concentration of 0.08·10^6 cells/well (n=6). […]
(§4) The synthetized collagen quantity is expressed as the ratio of quantity of collagen vs quantity of total proteins in the sample.
(§5) The quantity of total protein was determined using a biochemical test, the bicinchoninic acid assay (BCA assay). […] Absorbance is read immediately at 550 nm (Spectrophotometer Multiscan Ex, Thermo). The standard curve is drawn and the sample protein concentration is determined with this curve. […]
Collagen III synthesis is performed by Enzyme-linked immunosorbent assay with an ELISA kit (USCN SEA576Hu, Euromedex). […] The enzyme-substrate reaction is terminated by the addition of sulfuric acid solution and the color change is measured spectrophotometrically at 450 nm. […]
(§6) Data are expressed as mean+/−sem. […]

Collagen I = Collagen I synthesis (ELISA) in normal fibroblasts; details: normal fibroblasts (NF), compound at 9.4 mM, 48 hours; pg collagen I per mg proteins
Experimental: as §1, §2, §3, §4, §5
(§7) Collagen I synthesis was evaluated by Enzyme-linked immunosorbent assay with an ELISA kit (USCN SEA571Hu, Euromedex). […] The enzyme-substrate reaction is terminated by the addition of sulfuric acid solution and the color change is measured spectrophotometrically at 450 nm. […]
as §6

[1] = tested on: collagen I/collagen III ratio; assay: Collagen I/collagen III ratio in normal fibroblasts; details: normal fibroblasts (NF), compound at 9.4 mM
Experimental: as §1, §2
Fibroblasts were seeded in 6 wells culture plate at the concentration of 0.08·10^6 cells/well (n=6). After 48 hours of culture, wells were washed with 3 ml of PBS. 2 ml of each solution of tested compound were added per wells. […]
as §4
as §7, with “nm. The concentration of collagen I in the samples is then determined by comparing the optical density of the samples to the standard curve. The results were expressed as pg of collagen I by mg of proteins.” for “nm.”

SMILES: C[C@H](NC(=O)[C@H](C)NC(=O)[C@@H](N)CCCCNCC(F)(F)[C@]1(O)O[C@H](CO)[C@H](O)[C@H](O)[C@H]1O)C(=O)O [Compound 1]
- Protein Collagen III, Mean (Collagen III): 6.57*** ng/mg
- Protein Collagen I, Mean (Collagen I): 28.85*** pg/mg
- Ratio collagen I/collagen III [1]: 4.39.10^−3
